Source: patent US20260248881A1, “PHARMACEUTICAL COMPOSITION COMPRISING FOXM1 INHIBITOR AND IMMUNE CHECKPOINT INHIBITOR FOR PREVENTING OR TREATING CANCER” (National Cancer Center, priority 2022, published 2026)

System: FOXM1 and PD-L1
Assay: Immunoblotting of FOXM1 and PD-L1 after FDI-6 or RCM1 treatment
Assay type: cell-based, human
Conditions: lung cancer cell line (PC9) and colorectal cancer cell line (SW480)
Method: Human lung cancer cell lines (H1299, PC9), colorectal cancer cell lines (HCT116, SW480), and brain tumor cell lines (U118) were purchased from the American Type Culture Collection (Manassas, VA, USA). H1299, PC9, U118, and SW480 cells were cultured in Roswell Park Memorial Institute (RPMI) medium supplemented with 10% FBS and 1% penicillin/streptomycin, and HCT116 cells were cultured in McCoy's 5A medium supplemented with 10% FBS and 1% penicillin/streptomycin. Cells were maintained at 37° C. in a humidified incubator with 5% CO2.
After washing, appropriate secondary antibodies conjugated to horseradish peroxidase were bound to the membrane, and protein bands were detected using a chemiluminescence kit (Thermo Fisher Scientific, Carlsbad, CA, USA).

## Nc1c(C(=O)Nc2ccc(F)cc2)sc2nc(-c3cccs3)cc(C(F)(F)F)c12 [FDI-6]
  FOXM1 and PD-L1 expression: significantly decreased
